# Legend:
# [1] = tested on: Rattus norvegicus; conditions: for LD50: acute, mortality
# [2] = tested on: Oryctolagus sp.
# [3] = tested on: Colinus virginianus; conditions: for LC50: diet
# [4] = tested on: Canidae; conditions: chronic; duration: 2 years; oral; Dog Other; body weight
# [5] = tested on: Tagia sp.
# [6] = tested on: Bibionidae; conditions: chronic/long-term; duration: 28 days; other
# [7] = tested on: Pimephales promelas; conditions: chronic/long-term; duration: 33 days; growth
# [8] = tested on: Folsomia candida; conditions: chronic/long-term; duration: 28 days
# [9] = tested on: Mus musculus; conditions: chronic; duration: 78 weeks; oral; diet; histopathology: neoplastic
# [10] = tested on: Oncorhynchus mykiss; conditions: acute; duration: 96 hours; mortality
# [11] = tested on: Daphnia magna
# [12] = tested on: Apis mellifera; conditions: acute, mortality
smiles,measurement,setting,value
CS(=O)c1cc(C(F)(F)F)cnc1C(=O)O (centres undefined),LD50,[1]; oral,> 5000 mg/kg-day
"NC(=O)c1c(Cl)cccc1Cl [2,6-Dichlorobenzamide]",NOAEL,"[2]; reproduction developmental, body weight",30 mg/kg-day
same,LC50,"[3]; acute, oral, mortality",1170 mg/kg-day
same,NOAEL,[4],4.5 mg/kg-day
same,LD50,"[1]; oral, F",500 mg/kg-day
same,LD50,"[1]; oral, M",2000 mg/kg-day
same,NOAEL,"[1]; chronic, duration: 2 years, oral, histopathology: nonneoplastic",5.7 mg/kg-day
O=C(O)c1ncc(C(F)(F)F)cc1Cl [3-Chloro-5-(trifluoromethyl)pyridine-2-carboxylic acid],LD50,[1]; oral,5000 mg/kg-day
O=C(O)c1ncc(C(F)(F)F)cc1S(=O)(=O)O [3-Sulfo-5-trifluoromethyl pyridine-2-carboxylic acid],LD50,[1]; oral,> 5000 mg/kg-day
O=C(NCc1ncc(C(F)(F)F)cc1Cl)c1c(Cl)cccc1Cl [Fluopicolide],LC50,"[5]; acute, duration: 14 days, mortality",> 500 mg/kg
same,NOEC,"[5]; chronic/long-term, duration: 28 days, growth",62.5 mg/kg
same,NOEC,[6],49 mg/kg
same,NOEC,[7],0.155 mg/L
same,NOAEL,"[2]; developmental, development",20 mg/kg-day
same,NOEL,"[2]; developmental, development",20 mg/kg-day
same,NOEC,[8],31.2 mg/kg
same,LC50,"[3]; acute, oral, mortality",> 1740 mg/kg-day
same,LD50,"[3]; acute, oral, mortality",> 2250 mg/kg-day
same,NOEC,[3]; reproduction developmental,88.9 mg/kg-day
same,NOAEL,[9],7.9 mg/kg-day
same,LC50,[10],0.36 µg/mL
same,LC50,"[11]; acute, duration: 48 hours, mortality",> 1.8 µg/mL
same,NOEC,"[11]; chronic/long-term, duration: 21 days, reproduction",0.37 mg/L
same,LD50,[12]; dermal,> 100 µg/piece
same,LD50,"[12]; oral, unspecified",> 241 µg/piece
same,LD50,[1]; oral,> 5000 mg/kg-day
same,NOAEL,"[1]; chronic, duration: 2 years, histopathology: nonneoplastic",8.4 mg/kg-day
same,NOAEL,"[1]; short-term, duration: 28 days, oral, body weight",17.7 mg/kg-day
same,NOAEL,"[1]; subchronic, duration: 90 days, oral, organ weight",7.4 mg/kg-day

# — EPA's ToxValDB 9.5 (doi:10.2903/j.efsa.2009.299r)
